Target: T1, Stearoyl-CoA desaturase (Homo sapiens, UniProt O00767)
T1 sequence (O00767 whole entry): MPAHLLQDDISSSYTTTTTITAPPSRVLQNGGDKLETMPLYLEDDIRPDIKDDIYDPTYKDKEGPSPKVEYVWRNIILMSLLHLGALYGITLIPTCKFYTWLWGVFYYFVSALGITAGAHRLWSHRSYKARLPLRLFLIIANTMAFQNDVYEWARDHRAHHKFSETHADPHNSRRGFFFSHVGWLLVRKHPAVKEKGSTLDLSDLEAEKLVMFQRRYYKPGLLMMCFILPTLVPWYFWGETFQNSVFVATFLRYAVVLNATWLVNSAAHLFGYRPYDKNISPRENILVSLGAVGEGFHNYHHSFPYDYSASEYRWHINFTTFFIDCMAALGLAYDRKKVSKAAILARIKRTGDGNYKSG
Experiment: Inhibition of human SCD1

SMILES | IC50 [nM]
CC(C)CNC(=O)c1nccnc1NCC(=O)N1CCC(Oc2ccccc2Cl)CC1 | 260
O=C(NCc1ccccn1)c1nccnc1NCC(=O)N1CCC(Oc2ccccc2Cl)CC1 | 110
O=C(NCc1ccncc1)c1nccnc1NCC(=O)N1CCC(Oc2ccccc2Cl)CC1 | 110
O=C(Nc1ccccc1)c1nccnc1NCC(=O)N1CCC(Oc2ccccc2Cl)CC1 | 550
O=Cc1nccnc1NCC(=O)N1CCC(Oc2ccccc2Cl)CC1 | 210
N#Cc1nccnc1NCC(=O)N1CCC(Oc2ccccc2Cl)CC1 | 340
CNC(=O)c1nccnc1NCC(=O)N1CCC(Oc2ccccc2)CC1 | 6300
O=C(NCc1ccccc1)c1ncccc1NCC(=O)N1CCC(Oc2ccccc2Cl)CC1 | 560
O=C(NCc1ccccc1)c1nccnc1NCC(=O)N1CCC(Oc2ccccc2Cl)CC1 | 140
O=C(NCc1ccccc1)c1cccc(NCC(=O)N2CCC(Oc3ccccc3C(F)(F)F)CC2)n1 | 7300
CNC(=O)c1cccnc1NCC(=O)N1CCC(Oc2ccccc2C(F)(F)F)CC1 | > 1000
CCNC(=O)c1ncccc1NCC(=O)N1CCC(Oc2ccccc2C(F)(F)F)CC1 | 110
O=C(NCc1cccnc1)c1ncccc1NCC(=O)N1CCC(Oc2ccccc2C(F)(F)F)CC1 | 430
O=C(NCc1ccncc1)c1ncccc1NCC(=O)N1CCC(Oc2ccccc2C(F)(F)F)CC1 | 350
O=C(NCCc1ccccc1)c1ncccc1NCC(=O)N1CCC(Oc2ccccc2C(F)(F)F)CC1 | 780
CN(C)C(=O)c1ncccc1NCC(=O)N1CCC(Oc2ccccc2C(F)(F)F)CC1 | > 10000
O=C(NC1CCCC1)c1ncccc1NCC(=O)N1CCC(Oc2ccccc2C(F)(F)F)CC1 | > 10000
CNC(=O)c1nccnc1NCC(=O)N1CCC(C(=O)c2ccccc2)CC1 | > 1000
O=C(NCCO)c1nccnc1NCC(=O)N1CCC(Oc2ccccc2Cl)CC1 | 100
O=C(NCc1cccnc1)c1nccnc1NCC(=O)N1CCC(Oc2ccccc2Cl)CC1 | 99
CCCNC(=O)c1ncccc1NCC(=O)N1CCC(Oc2ccccc2C(F)(F)F)CC1 | 390
O=C(NCc1ccccc1)c1ccccc1NCC(=O)N1CCC(Oc2ccccc2Cl)CC1 | 580
O=C(NCCO)c1ncccc1NCC(=O)N1CCC(Oc2ccccc2C(F)(F)F)CC1 | 120

Further lines, results first:

IC50 [nM] | SMILES
39 | COC(=O)c1nccnc1NCC(=O)N1CCC(Oc2ccccc2Cl)CC1
30 | O=C(CNc1nccnc1Cl)N1CCC(Oc2ccccc2Cl)CC1
58 | CNC(=O)c1nccnc1NCC(=O)N1CCC(Oc2ccccc2Br)CC1
38 | CNC(=O)c1nccnc1NCC(=O)N1CCC(Oc2cc(Cl)ccc2Cl)CC1
97 | CNC(=O)c1ncccc1NCC(=O)N1CCC(Oc2ccccc2C(F)(F)F)CC1
51 | CNC(=O)c1nccnc1NCC(=O)N1CCC(Oc2ccccc2Cl)CC1
39 | CCNC(=O)c1nccnc1NCC(=O)N1CCC(Oc2ccccc2Cl)CC1
35 | CNC(=O)c1nccnc1NCC(=O)N1CCC(Oc2cc(F)cc(F)c2Cl)CC1
51 | CNC(=O)c1nccnc1NCC(=O)N1CCC(Oc2cc(F)ccc2Cl)CC1
90 | NC(=O)c1ncccc1NCC(=O)N1CCC(Oc2ccccc2C(F)(F)F)CC1
94 | NC(=O)c1nccnc1NCC(=O)N1CCC(Oc2ccccc2Cl)CC1

— ChEMBL document CHEMBL1144654, “Discovery of 1-(4-phenoxypiperidin-1-yl)-2-arylaminoethanone stearoyl-CoA desaturase 1 inhibitors” (Bioorg Med Chem Lett, 2007)
